Data reported in US12110279B2, “Triazolones, tetrazolones, and imidazolones, or their salts, and pharmaceutical compositions comprising the same” (Yuhan Corporation, priority 2021, dated 2024).
Where a name gives a salt, the structure may show the parent alone. Read-outs that look alike come from different tables or passages of the source.

Experiments:
Assay type in all cases: biochemical
[1] = molecular target: T1, recombinant human MAO-A (monoamine oxidase-A) (Homo sapiens, UniProt P21397); test: Amplex Red HRP-coupled amine oxidase activity evaluation, recombinant human MAO-A; conditions: substrate 0.5 mM tyramine; read-out: Inhibitory Activity (IC50, nM) MAO-A
T1 construct: purchased Sigma-Aldrich
T1 sequence (P21397 1-527): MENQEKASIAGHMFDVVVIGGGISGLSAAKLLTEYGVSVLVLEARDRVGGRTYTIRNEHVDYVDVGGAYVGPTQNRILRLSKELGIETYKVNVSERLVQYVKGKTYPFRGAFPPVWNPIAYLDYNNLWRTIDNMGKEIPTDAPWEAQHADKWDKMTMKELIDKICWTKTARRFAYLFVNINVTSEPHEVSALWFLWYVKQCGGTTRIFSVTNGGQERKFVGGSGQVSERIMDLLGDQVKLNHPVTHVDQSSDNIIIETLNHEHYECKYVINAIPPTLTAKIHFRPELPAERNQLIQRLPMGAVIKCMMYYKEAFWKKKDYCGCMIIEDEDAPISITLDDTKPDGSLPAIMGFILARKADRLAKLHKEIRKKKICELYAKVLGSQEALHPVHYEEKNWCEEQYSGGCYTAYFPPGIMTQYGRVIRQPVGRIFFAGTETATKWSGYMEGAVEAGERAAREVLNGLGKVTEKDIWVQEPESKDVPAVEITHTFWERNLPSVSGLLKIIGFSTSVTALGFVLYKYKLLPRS

[2] = molecular target: T2, recombinant human DAO (diamine oxidase) (Homo sapiens, UniProt P19801); test: Amplex Red HRP-coupled amine oxidase activity evaluation, recombinant human DAO
T2 construct: purchased R&D systems
T2 sequence (P19801 20-751): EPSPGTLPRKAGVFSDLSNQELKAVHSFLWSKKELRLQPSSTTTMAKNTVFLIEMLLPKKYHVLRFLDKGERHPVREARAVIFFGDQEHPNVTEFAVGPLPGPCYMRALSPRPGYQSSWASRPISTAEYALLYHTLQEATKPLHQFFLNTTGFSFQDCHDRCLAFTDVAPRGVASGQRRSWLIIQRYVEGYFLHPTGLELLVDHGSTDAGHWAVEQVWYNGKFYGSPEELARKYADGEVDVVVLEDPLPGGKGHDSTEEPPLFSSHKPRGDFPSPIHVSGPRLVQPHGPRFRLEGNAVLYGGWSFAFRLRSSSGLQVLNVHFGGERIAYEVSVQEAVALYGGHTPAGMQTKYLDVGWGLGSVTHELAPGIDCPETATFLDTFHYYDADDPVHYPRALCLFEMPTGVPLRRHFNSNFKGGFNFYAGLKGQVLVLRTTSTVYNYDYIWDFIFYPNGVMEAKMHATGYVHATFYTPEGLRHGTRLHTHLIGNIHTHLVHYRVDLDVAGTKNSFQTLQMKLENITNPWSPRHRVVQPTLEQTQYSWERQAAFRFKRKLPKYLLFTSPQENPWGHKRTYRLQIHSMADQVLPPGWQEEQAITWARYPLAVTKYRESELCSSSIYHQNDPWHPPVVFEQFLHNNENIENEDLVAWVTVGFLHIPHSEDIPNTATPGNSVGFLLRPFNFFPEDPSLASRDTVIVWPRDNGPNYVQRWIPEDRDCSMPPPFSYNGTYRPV

[3] = molecular target: T3, recombinant human VAP-1 (Homo sapiens, UniProt Q16853); test: Amplex Red HRP-coupled amine oxidase activity evaluation, recombinant human VAP-1; conditions: substrate 1 mM benzylamine; 30 min preincubation at 37° C.; read-out: Inhibitory Activity (IC50, nM) human VAP-1
T3 construct: purchased R&D systems
T3 sequence (Q16853 1-763): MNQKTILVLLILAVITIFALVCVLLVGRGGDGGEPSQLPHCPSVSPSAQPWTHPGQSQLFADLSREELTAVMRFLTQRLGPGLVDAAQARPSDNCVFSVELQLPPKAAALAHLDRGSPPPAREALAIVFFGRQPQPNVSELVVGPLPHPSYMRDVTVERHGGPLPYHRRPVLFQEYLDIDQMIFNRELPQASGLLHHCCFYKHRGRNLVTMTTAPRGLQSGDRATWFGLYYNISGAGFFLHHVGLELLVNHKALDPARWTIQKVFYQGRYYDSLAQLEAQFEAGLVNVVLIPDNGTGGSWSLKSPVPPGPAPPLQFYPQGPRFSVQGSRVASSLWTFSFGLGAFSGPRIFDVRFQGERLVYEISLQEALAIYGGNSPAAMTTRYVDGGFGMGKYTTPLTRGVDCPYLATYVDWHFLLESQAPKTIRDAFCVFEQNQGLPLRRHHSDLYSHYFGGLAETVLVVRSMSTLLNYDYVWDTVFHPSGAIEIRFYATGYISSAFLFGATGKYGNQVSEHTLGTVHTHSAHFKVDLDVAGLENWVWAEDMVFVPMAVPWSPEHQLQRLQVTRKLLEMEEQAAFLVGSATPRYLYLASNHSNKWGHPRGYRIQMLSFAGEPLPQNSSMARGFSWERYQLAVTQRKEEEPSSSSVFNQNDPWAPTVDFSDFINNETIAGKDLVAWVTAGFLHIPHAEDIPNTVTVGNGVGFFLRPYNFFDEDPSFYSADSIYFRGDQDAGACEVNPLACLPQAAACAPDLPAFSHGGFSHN
Outline: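 Steps: 8-point 1:3 compound dilutions (final DMSO <1%); 30 min at 37° C with human VAP-1 in 50 mM NaPi pH 7.4; addition of a mix holding 200 uM Amplex Red, 1 mM benzylamine and 1 U/mL HRP; kinetic fluorescence over 1-2 h. Four-parameter logistic IC50.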

[4] = molecular target: T4, recombinant human MAO-B (monoamine oxidase-B) (Homo sapiens, UniProt P27338); test: Amplex Red HRP-coupled amine oxidase activity evaluation, recombinant human MAO-B; conditions: substrate 1 mM benzylamine; read-out: Inhibitory Activity (IC50, nM) MAO-B
T4 construct: purchased Sigma-Aldrich
T4 sequence (P27338 1-520): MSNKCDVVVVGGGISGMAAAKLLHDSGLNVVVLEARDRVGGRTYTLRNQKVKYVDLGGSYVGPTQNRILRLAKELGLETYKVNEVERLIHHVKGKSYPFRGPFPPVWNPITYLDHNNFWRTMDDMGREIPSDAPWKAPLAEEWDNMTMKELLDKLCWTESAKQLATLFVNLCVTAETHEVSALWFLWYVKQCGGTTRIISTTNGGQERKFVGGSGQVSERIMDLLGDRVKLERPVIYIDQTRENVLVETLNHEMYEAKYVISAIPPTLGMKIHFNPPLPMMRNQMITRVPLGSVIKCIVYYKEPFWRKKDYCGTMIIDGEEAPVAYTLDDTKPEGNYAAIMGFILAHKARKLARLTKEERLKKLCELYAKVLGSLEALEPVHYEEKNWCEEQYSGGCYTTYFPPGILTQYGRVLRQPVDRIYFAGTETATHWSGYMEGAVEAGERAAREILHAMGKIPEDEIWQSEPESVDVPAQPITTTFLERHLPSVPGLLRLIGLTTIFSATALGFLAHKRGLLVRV

[5] = substrate 1 mM putrescine, read-out: Inhibitory Activity (IC50, nM) DAO

Compound	IC50 [1]	IC50 [2]	IC50 [3]	IC50 [4]	IC50 [2, 5]
CN1C(=O)CCc2cc(-c3ccc(Cn4ccn(CC(CN)=C(F)F)c4=O)s3)ccc21 [Example 51, 6-[5-[[3-[2-(aminomethyl)-3,3-difluoro-allyl]-2-oxo-imidazol-1-yl]methyl]-2-thienyl]-1-methyl-3,4-dihydroquinolin-2-one trifluoroacetate]	> 100000 nM		1.9 nM	63100 nM	206 nM
CCn1cc(-c2ccc(Cn3ccn(CC(CN)=C(F)F)c3=O)s2)cn1 [Example 52, 1-[2-(aminomethyl)-3,3-difluoro-allyl]-3-[[5-(1-ethylpyrazol-4-yl)-2-thienyl]methyl]imidazol-2-one trifluoroacetate]	> 100000 nM		> 100 nM	60200 nM	192 nM
NCC(Cn1ccn(Cc2ccc(-c3ccn4ncnc4c3)s2)c1=O)=C(F)F [Example 53, 1-[2-(aminomethyl)-3,3-difluoro-allyl]-3-[[5-([1,2,4]triazolo[1,5-a]pyridin-7-yl)-2-thienyl]methyl]imidazol-2-one trifluoroacetate]	> 100000 nM		> 100 nM	80500 nM	38200 nM

More lines, now with the values ahead:

IC50 [1]	IC50 [2]	IC50 [3]	IC50 [4]	IC50 [2, 5]	Compound
52200 nM	3.5 nM	0.9 nM	7080 nM		Cc1cc(-c2cncc(-n3nnn(CC(CN)=C(F)F)c3=O)c2)cc2c1NC(=O)CC2 [Example 49, 6-[5-[4-[2-(aminomethyl)-3,3-difluoro-allyl]-5-oxo-tetrazol-1-yl]-3-pyridyl]-8-methyl-3,4-dihydro-1H-quinolin-2-one trifluoroacetate]
> 100000 nM		> 100 nM	> 100000 nM	8.3 nM	CCn1cc(-c2ccc(Cn3ccn(CC(CN)=C(F)F)c3=O)s2)ccc1=O [Example 50, 5-[5-[[3-[2-(aminomethyl)-3,3-difluoro-allyl]-2-oxo-imidazol-1-yl]methyl]-2-thienyl]-1-ethyl-pyridin-2-one trifluoroacetate]
